Measurements as given in EPA's ToxRefDB 2.

Key:
rabbit [1] = settings: Prenatal developmental toxicity study, new zealand white, Oral, Gavage/Intubation, dose end: 18 GD
rat [2] = settings: Chronic toxicity, fischer, Oral, Feed, dose end: 24 month, group: systemic
rabbit [3] = settings: Prenatal developmental toxicity study, new zealand white, Oral, Gavage/Intubation, dose end: 19 GD
rat [4] = settings: Multigenerational reproductive toxicity study, sprague dawley, Oral, Feed, dose end: 2 generation
rat [5] = settings: Combined chronic toxicity/carcinogenicity, sprague dawley, Oral, Feed, dose end: 104 week, group: systemic
mouse [6] = settings: Carcinogenicity, cd1, Oral, Feed, dose end: 113 week, group: systemic
mouse [7] = settings: Carcinogenicity, b6c3f1, Oral, Feed, dose end: 104 week, group: systemic
dog [8] = settings: Chronic toxicity; beagle; Oral; Capsule; dose end: 12 month; group: systemic; systemic / in life observation / body weight / body weight gain + systemic / clinical chemistry / albumin / albumin + systemic / clinical …
dog [9] = settings: Chronic toxicity, beagle, Oral, Capsule, dose end: 28 day, group: systemic
rat [10] = settings: Prenatal developmental toxicity study, sprague dawley, Oral, Gavage/Intubation, dose end: 19 GD
rabbit [11] = settings: Prenatal developmental toxicity study, new zealand white, Oral, Gavage/Intubation, dose end: 28 GD
[12] = group: developmental, developmental / developmental malformation / bone / [other] + developmental / developmental malformation / bone / misshapen fontanel + …
[13] = group: maternal, reproductive / reproductive performance / aborted / aborted + reproductive / reproductive performance / resorptions / resorptions + systemic…
[14] = systemic / pathology microscopic / stomach / hyperkeratosis
[15] = systemic / pathology microscopic / stomach / hyperkeratosis + systemic / in life observation / body weight / body weight gain + systemic / …
[16] = group: developmental, developmental / developmental malformation / bone / unossified
[17] = group: developmental, developmental / developmental malformation / bone / unossified + developmental / developmental malformation / bone / delayed ossification + …
[18] = group: maternal, systemic / in life observation / body weight / body weight gain + systemic / in life observation / food consumption / food consumption + …
[19] = group: offspring, systemic / in life observation / body weight / offspring (pup) weight
[20] = group: parental, systemic / in life observation / body weight / body weight + systemic / in life observation / body weight / body weight gain + systemic / in…
[21] = group: reproductive, reproductive / reproductive performance / fertility / fertility
[22] = systemic / pathology microscopic / stomach / acanthosis + systemic / pathology microscopic / stomach / erosion + systemic / pathology …
[23] = systemic / pathology microscopic / testes / interstitial cell tumor nos + systemic / pathology microscopic / thyroid gland / adenoma/…
[24] = systemic / hematology / hematocrit (hct) / hematocrit (hct) + systemic / in life observation / clinical signs / weakness + systemic / …
[25] = systemic / pathology microscopic / stomach / hyperkeratosis + systemic / pathology microscopic / intestine small / carcinoma + systemic / …
[26] = systemic / pathology microscopic / stomach / hyperkeratosis + systemic / pathology microscopic / intestine small / hyperplasia + systemic / …
[27] = systemic / in life observation / clinical signs / emesis + systemic / organ weight / liver / absolute + systemic / organ weight / brain / …
[28] = group: developmental, developmental / developmental malformation / bone / incomplete ossification + developmental / developmental malformation / bone / misaligned…
[29] = group: maternal, systemic / in life observation / body weight / body weight gain + systemic / in life observation / clinical signs / respiration (rales)
[30] = group: maternal, systemic / in life observation / body weight / body weight gain + systemic / in life observation / clinical signs / respiration (rales) + …
[31] = group: developmental, developmental / developmental malformation / bone / domed head + developmental / developmental malformation / bone / misshapen fontanel + …
[32] = group: maternal, systemic / in life observation / food consumption / food consumption

O=C1c2ccccc2C(=O)N1SC(Cl)(Cl)Cl [Folpet]
LEL (rabbit [1]; [12]): 60 mg/kg/day
LOAEL (rabbit [1]; [12]): > 60 mg/kg/day
NEL (rabbit [1]; [12]): < 60 mg/kg/day
NOAEL (rabbit [1]; [12]): ≥ 60 mg/kg/day
LEL (rabbit [1]; [13]): 60 mg/kg/day
LOAEL (rabbit [1]; [13]): > 60 mg/kg/day
NEL (rabbit [1]; [13]): < 60 mg/kg/day
NOAEL (rabbit [1]; [13]): ≥ 60 mg/kg/day
LEL (rat [2]; [14]): 81 mg/kg/day
LOAEL (rat [2]; [14]): 81 mg/kg/day
NEL (rat [2]; [15]): 12 mg/kg/day
NOAEL (rat [2]; [15]): 12 mg/kg/day
LEL (rabbit [3]; [16]): 40 mg/kg/day
LOAEL (rabbit [3]; [16]): 40 mg/kg/day
NEL (rabbit [3]; [17]): 10 mg/kg/day
NOAEL (rabbit [3]; [17]): 10 mg/kg/day
LOAEL (rabbit [3]; group: maternal, systemic / in life observation / body weight / body weight gain + systemic / in life observation / food consumption / food consumption): 160 mg/kg/day
LEL (rabbit [3]; [18]): 160 mg/kg/day
NEL (rabbit [3]; [18]): 40 mg/kg/day
NOAEL (rabbit [3]; [18]): 40 mg/kg/day
LEL (rat [4]; [19]): 180 mg/kg/day
LOAEL (rat [4]; [19]): 180 mg/kg/day
NEL (rat [4]; [19]): 40 mg/kg/day
NOAEL (rat [4]; [19]): 40 mg/kg/day
LOAEL (rat [4]; [20]): 180 mg/kg/day
NEL (rat [4]; [20]): 10 mg/kg/day
NOAEL (rat [4]; [20]): 40 mg/kg/day
LEL (rat [4]; group: parental, systemic / in life observation / food consumption / food consumption): 40 mg/kg/day
LEL (rat [4]; [21]): 180 mg/kg/day
LOAEL (rat [4]; [21]): 180 mg/kg/day
NEL (rat [4]; [21]): 40 mg/kg/day
NOAEL (rat [4]; [21]): 40 mg/kg/day
LOAEL (rat [5]; [22]): 35 mg/kg/day
NOAEL (rat [5]; [22]): 9 mg/kg/day
LEL (rat [5]; [23]): 9 mg/kg/day
NEL (rat [5]; [23]): < 9 mg/kg/day
LEL (mouse [6]; [24]): 93 mg/kg/day
NEL (mouse [6]; [24]): < 93 mg/kg/day
LOAEL (mouse [6]; systemic / pathology microscopic / intestine small / hyperplasia): 1280 mg/kg/day
NOAEL (mouse [6]; systemic / pathology microscopic / intestine small / hyperplasia + systemic / pathology microscopic / intestine small / adenocarcinoma + …): 502 mg/kg/day
LOAEL (mouse [7]; [25]): 150 mg/kg/day
NOAEL (mouse [7]; [25]): < 150 mg/kg/day
LEL (mouse [7]; [26]): 150 mg/kg/day
NEL (mouse [7]; [26]): < 150 mg/kg/day
LEL (dog [8]): 60 mg/kg/day
LOAEL (dog [8]): 60 mg/kg/day
NEL (dog [8]): 10 mg/kg/day
NOAEL (dog [8]): 10 mg/kg/day
LOAEL (dog [9]; systemic / in life observation / body weight / body weight gain + systemic / in life observation / body weight / body weight): 60 mg/kg/day
NOAEL (dog [9]; systemic / in life observation / body weight / body weight gain + systemic / in life observation / body weight / body weight + systemic / in…): 20 mg/kg/day
LEL (dog [9]; [27]): 20 mg/kg/day
NEL (dog [9]; [27]): < 20 mg/kg/day
LEL (rat [10]; [28]): 360 mg/kg/day
LOAEL (rat [10]; [28]): 360 mg/kg/day
NEL (rat [10]; [28]): 60 mg/kg/day
NOAEL (rat [10]; [28]): 60 mg/kg/day
LEL (rat [10]; [29]): 60 mg/kg/day
LOAEL (rat [10]; [29]): 60 mg/kg/day
NEL (rat [10]; [30]): 10 mg/kg/day
NOAEL (rat [10]; [30]): 10 mg/kg/day
LEL (rabbit [11]; [31]): 20 mg/kg/day
LOAEL (rabbit [11]; [31]): 20 mg/kg/day
NEL (rabbit [11]; [31]): 10 mg/kg/day
NOAEL (rabbit [11]; [31]): 10 mg/kg/day
LEL (rabbit [11]; [32]): 20 mg/kg/day
LOAEL (rabbit [11]; [32]): 20 mg/kg/day
NEL (rabbit [11]; [32]): 10 mg/kg/day
NOAEL (rabbit [11]; [32]): 10 mg/kg/day
